In patent US20230355597A1, “COMPOUNDS, COMPOSITIONS, AND METHODS FOR THE TREATMENT AND PREVENTION OF AVIAN PATHOGENIC E. COLI (APEC)” (OHIO STATE INNOVATION FOUNDATION, priority 2018, published 2023):

What was measured:
[1] = system: QS and virulence associated genes of APEC O78; experiment: qRT-PCR of QS-regulated and virulence factors genes; assay type: cell-based, avian pathogenic Escherichia coli (APEC); conditions: 100 µM, 10 h
[2] = system: AI-2 activity of APEC O18; experiment: AI-2 bioluminescence indicator assay (V. harveyi BB170); conditions: APEC O18, 100 µM
[3] = system: AI-2 activity of APEC O115; experiment: as above; conditions: APEC O115, 100 µM
Rif^r APEC O78 [4] = experiment: Wax moth (Galleria mellonella) larva infection model (AI-2 inhibitors); conditions: 72 h post treatment
[5] = system: AI-2 activity of APEC O109; experiment: AI-2 bioluminescence indicator assay (V. harveyi BB170); conditions: APEC O109, 100 µM
[6] = system: AI-2 activity of APEC O78; experiment: as above; conditions: APEC O78, 100 µM
AI-2 activity of APEC O8 = experiment: as above; conditions: APEC O8, 100 µM
AI-2 activity of APEC O2 = experiment: as above; conditions: APEC O2, 100 µM
Rif^r APEC O78 [7] = experiment: In vivo screening of quorum sensing inhibitors in APEC infected broiler chickens; conditions: for reduction in chicken mortality: DMSO control mortality normalized to 100%; for Mortality rate (%): oral gavage once a day, day 4 to day 8, DMSO control 66.7%; for Reduction in APEC lesions severity, Air-sacs (%) / Reduction in APEC lesions severity, Heart (%) / Reduction in APEC lesions severity, Liver (%) / Reduction in APEC lesions severity, Lung (%): vs DMSO treated control
[8] = system: AI-2 activity of APEC O35; experiment: AI-2 bioluminescence indicator assay (V. harveyi BB170); conditions: APEC O35, 100 µM
[9] = system: AI-2 activity of APEC O15; experiment: as above; conditions: APEC O15, 100 µM
[10] = system: APEC O78 biofilm formation; experiment: Biofilm assay (crystal violet); assay type: cell-based, avian pathogenic Escherichia coli (APEC); conditions: 100 µM, 48 h
Protocol: Biofilm assay. […] Briefly, APEC O78 was grown in LB broth in the presence of 100 µM of each compound in a 96-well plate at 37° C. for 10 h. The culture was then diluted 1:100 in fresh LB broth. The biofilm assay was performed in 96-well plate contain 150 µL of the diluted culture and 100 µM of each compound. The plate was then incubated aerobically without shaking at 37° C. for 48 h, washed twice with PBS to remove the non-adherent cells and stained with 200 µL of 0.1% CV in water at room temperature for 10 min. The plate was washed with PBS and biofilm was quantified by measuring the absorbance at 550 nm after solubilizing the CV in 200 µL of 30% acetic acid in water for 15 min.

Caco-2 cells = experiment: LDH assay of AI-2 inhibitors; conditions: Caco-2, 100 µM, 24 h
APEC O2 in THP-1 cells = experiment: Intracellular survival assay (AI-2 inhibitors); conditions: O2, THP-1, 100 µM, 6 h
APEC O78 in THP-1 cells = experiment: Intracellular survival assay (AI-2 inhibitors); conditions: O78, THP-1, 100 µM, 6 h, vs DMSO
APEC O2 in HD-11 cells = experiment: Intracellular survival assay (AI-2 inhibitors); conditions: O2, HD-11, 100 µM, 6 h
APEC O78 in HD-11 cells = experiment: Intracellular survival assay (AI-2 inhibitors); assay type: cell-based, avian pathogenic Escherichia coli (APEC); conditions: O78, HD-11, 100 µM, 6 h
Excerpt: Intracellular survival assay.

AI-2 activity of APEC O1 = experiment: AI-2 bioluminescence indicator assay (V. harveyi BB170); conditions: APEC O1, 100 µM

Compound | Inhibition % of AI-2 activity [2] | Inhibition % of AI-2 activity [5] | Inhibition % of AI-2 activity [6] | Inhibition % of AI-2 activity (AI-2 activity of APEC O8) | Inhibition % of AI-2 activity (AI-2 activity of APEC O2) | reduction in chicken mortality (Rif^r APEC O78 [7]) | Mortality rate (%) (Rif^r APEC O78 [7]) | Reduction in APEC lesions severity, Air-sacs (%) (Rif^r APEC O78 [7]) | Reduction in APEC lesions severity, Heart (%) (Rif^r APEC O78 [7]) | Reduction in APEC lesions severity, Liver (%) (Rif^r APEC O78 [7]) | Reduction in APEC lesions severity, Lung (%) (Rif^r APEC O78 [7]) | Inhibition % of AI-2 activity [8] | Inhibition % of AI-2 activity [9] | further results
COCCN1CCC(CN(Cc2ccncc2)Cc2ccccc2Cl)CC1 [C1, {2-chlorobenzyl)([1(2-methoxyethyly-4-piperidinyl]methyl)4-pyridinyimethyl)amine] | 37% | 65% | 84% | 20% | 94% | 25% | 50% | 26.7% | 0% | 0% | 66.7% | 48% | 13% | expression of murD [1]: down-regulated; Inhibition % of AI-2 activity [3]: 64%; larval death (Rif^r APEC O78 [4]): no larval death; induction of biofilm formation of APEC O78 [10]: up to 100%
OCCC1CN(C2CCN(c3ccccc3)CC2)CCN1CCCc1ccccc1 (stereo not drawn) [C10] | 35% | 57% | 84% | 0% | 89% | 75% | 16.6% | 88.9% | 83.3% | 100% | 100% | 47% | 22% | toxicity (LDH) (Caco-2 cells): 27%; expression of fliP [1]: down-regulated; clearance of intracellular APEC (APEC O2 in THP-1 cells): 100%; reduction of intracellular survival (APEC O2 in THP-1 cells; vs DMSO): 4 logs; reduction of intracellular survival (APEC O78 in THP-1 cells): up to 0.7 logs; average lesion score reduction (Rif^r APEC O78 [7]; liver, heart, lung and airsac, vs DMSO): 1.5-2.3; reduction of bacterial load in internal organs (Rif^r APEC O78 [7]; liver, lung, heart, and kidney, vs DMSO control, 'up to'): 3.4-4.3 log CFU/g; clearance of intracellular APEC (APEC O2 in HD-11 cells): 100%; reduction of intracellular survival (APEC O2 in HD-11 cells; vs DMSO): 3.3 logs; clearance of intracellular APEC (APEC O78 in HD-11 cells): 100%; reduction of intracellular survival (APEC O78 in HD-11 cells; vs DMSO): 4 logs; Inhibition % of AI-2 activity (AI-2 activity of APEC O1): 64%
